Data set [1] is described as follows: HPLC-based chromatographic hydrophobicity index on immobilized artificial membranes (CHI IAM). The data set is classed as physicochemical. Particulars: IAM PC DD2 column, acetonitrile / 50 mM ammonium acetate gradient. An excerpt:
Physicochemical properties of a drug such as lipophilicity and non-specific binding to membranes and plasma proteins are crucial parameters of a potential radiotracer, in particular if it is supposed to pass the blood brain barrier (BBB). The lipophilicity (logD7.4) was estimated using the commercially available ACD/Labs-12.5 software and the non-specific binding was estimated by the high-performance liquid chromatography (HPLC)-based hydrophobicity index at immobilized artificial membranes (CHI IAM) for seven fluorine substituted candidate molecules and (S)-13 without fluorine (Table 3).
The chromatographic hydrophobicity index on immobilized artificial membranes (CHI IAM) was experimentally determined by a HPLC method described by Valko and co-workers using a IAM PC DD2 column (100 × 4.6 mm, […], Regis Technologies, IL, USA), a gradient of acetonitrile, and 50 mM ammonium acetate as eluent and acetanilide, acetophenone, 1,4-dinitrobenzene, anisole propiophenone, valerophenone, and octanophenone as references.

The subject of another data set is adrenergic α1ARs. In words: Commercial screening by Eurofins Panlabs. The data set is classed as binding.
The target in data set [2] is hGhrR (COS7 cells stably expressing hGhrR-eYFP) (Homo sapiens, UniProt Q92847). In words: cell-based.
Chain of hGhrR (COS7 cells stably expressing hGhrR-eYFP) (Q92847 whole entry): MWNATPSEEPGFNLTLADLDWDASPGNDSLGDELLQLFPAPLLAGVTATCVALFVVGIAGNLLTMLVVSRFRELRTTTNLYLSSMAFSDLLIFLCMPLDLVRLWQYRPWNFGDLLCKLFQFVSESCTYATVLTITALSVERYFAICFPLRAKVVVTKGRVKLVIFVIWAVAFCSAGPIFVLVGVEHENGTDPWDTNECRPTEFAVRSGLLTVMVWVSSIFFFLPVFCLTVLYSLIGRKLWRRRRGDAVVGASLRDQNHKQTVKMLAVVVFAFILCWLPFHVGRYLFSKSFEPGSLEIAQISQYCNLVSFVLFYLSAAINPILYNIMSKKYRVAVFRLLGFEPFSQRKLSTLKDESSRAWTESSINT
Description: For that purpose, the inositol phosphate accumulation assay was used [43, 44].
Briefly, 60,000 to 80,000 cells/well of COS7 cells, stably expressing the fusion protein hGhrR-eYFP, were seeded in 48-well plates in Dulbecco’s modified Eagle’s medium (DMEM) with 10% fetal calf serum (FCS) and 0.4 mg/mL hygromycin B. The next day, the cells were labeled with [2-^3H]-myo-inositol (2 µCi/mL, PerkinElmer). […] Cell debris was removed and the supernatant purified on an anion-exchange resin (BioRad, Hercules, CA, USA). The obtained data were analyzed with GraphPad Prism 5.0 (GraphPad Software, San Diego, CA, USA). […] EC50/IC50 values were calculated from at least three independent experiments. Emax is defined as the difference between maximal and minimal effect in presence of the compound.
Another data set concerns the target T1, serotonin 5-HT2BRs (Homo sapiens, UniProt P41595).
T1 construct: Eurofins Panlabs (Taiwan), contract screening
In words: Commercial screening by Eurofins Panlabs. The data set is classed as binding.

The next data set addresses GhrR. Also on record: method as in PMID 22342626. Particulars: previously published value; cited from earlier work.
The next data set concerns adrenergic α1BRs. The data set can be described thus: Commercial screening by Eurofins Panlabs. The data set is classed as binding.
Another data set deals with T2, chemokine CXCR3Rs (Homo sapiens, UniProt P49682).
T2 construct: Eurofins Panlabs (Taiwan), contract screening
T2 sequence (P49682 1-368): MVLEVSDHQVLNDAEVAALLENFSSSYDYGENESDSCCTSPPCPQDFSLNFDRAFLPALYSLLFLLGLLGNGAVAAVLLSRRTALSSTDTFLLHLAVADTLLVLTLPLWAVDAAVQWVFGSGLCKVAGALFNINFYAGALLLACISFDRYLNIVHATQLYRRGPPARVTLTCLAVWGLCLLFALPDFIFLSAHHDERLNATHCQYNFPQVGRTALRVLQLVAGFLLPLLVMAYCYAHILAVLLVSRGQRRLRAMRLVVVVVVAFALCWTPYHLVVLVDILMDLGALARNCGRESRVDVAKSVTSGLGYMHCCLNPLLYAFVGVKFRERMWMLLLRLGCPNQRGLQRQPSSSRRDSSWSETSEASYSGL
The data set can be described thus: Commercial screening by Eurofins Panlabs. The data set is classed as binding.

For a further data set, the target named is T3, rat σ2 receptor (Rattus norvegicus, UniProt Q5U3Y7).
T3 construct: rat σ2 receptor = rat liver homogenate; from tissue; host or cells: rat liver homogenate
T3 sequence (Q5U3Y7 1-176): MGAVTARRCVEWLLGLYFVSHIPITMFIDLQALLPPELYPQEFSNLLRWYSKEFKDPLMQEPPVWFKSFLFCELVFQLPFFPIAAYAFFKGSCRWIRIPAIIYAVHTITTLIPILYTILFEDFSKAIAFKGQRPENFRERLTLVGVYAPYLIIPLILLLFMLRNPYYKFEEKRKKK
The data set can be described thus: Selectivity radioligand displacement, [3H]DTG, rat liver homogenate. The data set is classed as binding. Particulars: [3H]DTG + 1 µM dextrallorphan. Here is the method:
[…]
The incubations were terminated by rapid filtration via glass-fiber filters presoaked in PEI (0.3%, 60 min at rt), and the filter-bound radioactivity was counted by liquid scintillation counting (Tricarb, PerkinElmer).
Background: In a radioligand displacement assay an active substance lowers the binding of a labelled ligand.

The target in data set [3] is T4, hGhrR (COS7 cells stably transfected with hGhrR) (Homo sapiens, UniProt Q92847).
T4 construct: expressed in transfected cells
T4 sequence (Q92847 whole entry): as the sequence (Q92847 whole entry) above
In words: Inositol phosphate accumulation assay, antagonistic potency with 10^-8 M ghrelin. The data set is classed as cell-based. Here is the method:
Antagonistic properties at the hGhrR
antagonistic potency in an inositol phosphate accumulation assay (Table S1). The receptor was
Table S1. Inositol phosphate accumulation assay to determine antagonistic potencies of candidate
Compounds were analyzed by inositol phosphate accumulation in COS7 cells stably

“Also recorded” adds a separate entry of the source.

T1 sequence (P41595 whole entry): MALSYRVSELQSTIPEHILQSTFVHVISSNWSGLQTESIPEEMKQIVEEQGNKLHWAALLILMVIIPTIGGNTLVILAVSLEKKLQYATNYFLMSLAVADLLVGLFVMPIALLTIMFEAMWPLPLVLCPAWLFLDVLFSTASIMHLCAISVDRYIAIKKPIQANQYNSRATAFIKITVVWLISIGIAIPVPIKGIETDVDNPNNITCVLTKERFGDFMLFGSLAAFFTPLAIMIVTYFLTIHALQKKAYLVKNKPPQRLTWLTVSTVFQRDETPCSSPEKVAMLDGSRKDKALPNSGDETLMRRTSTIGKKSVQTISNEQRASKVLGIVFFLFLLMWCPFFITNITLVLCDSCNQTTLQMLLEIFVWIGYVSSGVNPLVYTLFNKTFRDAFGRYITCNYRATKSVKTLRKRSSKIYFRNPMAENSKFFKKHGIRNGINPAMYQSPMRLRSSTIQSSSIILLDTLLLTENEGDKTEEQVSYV

For the compound `Cc1nc2ccc(Oc3ccc(Br)cc3F)nc2c(=O)n1C[C@H]1CCCN(C(C)C)C1` [(S)-9, (S)-6-(4-Bromo-2-fluorophenoxy)-3-((1-isopropylpiperidin-3-yl)methyl)-2-methylpyrido[3,2-d]pyrimidin-4(3H)-one], the “CHI IAM” value in [1] amounted to 43.0. Further, the “significant response (≥50% inhibition or stimulation)” value in the data set with adrenergic α1ARs, on serotonin 5-HT2BRs, in the data set on adrenergic α1BRs and at chemokine CXCR3Rs was “did not show significant responses; also recorded: did not show significant binding” in each case. Moreover, the Emax in data set [2] (COS-7, mean ± SEM, refers to ghrelin Emax as 100%, 0% = constitutive receptor activity) was ~60%; in [3] (COS-7, read-out: Emax (antagonistic efficacy)) it was 38 ± 4%. In addition, the EC50 was 0.7 nM in [2] (EC50, 2 h stimulation in absence of ghrelin, COS7-hGhrR) and 0.676 nM in data set [2] (pEC50, mean ± SEM, 2 h stimulation in absence of ghrelin). For the same compound, the Ki on GhrR was 0.01 nM; at rat σ2 receptor, 87 ± 23 nM. The IC50 in data set [3] (5 min pre-stimulation with compound, then 10^-8 M ghrelin, read-out: IC50 (antagonistic potency)) was found to be 24.8 nM.

One may read the Emax as the maximal effect, on the per cent scale that the assay sets. One may read the EC50 as the concentration giving half of the maximal effect. The Ki is a dissociation constant, usually derived from enzyme kinetics or from competition with a known ligand. Broadly, the IC50 is the concentration needed to halve the response being measured.

The values are drawn from paper PMC5412352 (International Journal of Molecular Sciences, 2017).
